Measurements from PMC3514216, “SRC Homology 2 Domain Binding Sites in Insulin, IGF-1 and FGF receptor mediated signaling networks reveal an extensive potential interactome” (Cell Communication and Signaling : CCS, 2012).

Tested on: panel of 50 SH2 domains
Test: SPOT peptide array probed with each of 50 GST-SH2 domains
Format: binding
Conditions: SPOT192 peptide array; for SH2 Domains >3X: list of GST-SH2 domains with spot intensity >3X array mean (array-positive); for 2X < SH2 Domains < 3X: list of GST-SH2 domains with spot intensity between 2X and 3X array mean (indeterminate range)
Text: The use of addressable peptide arrays is a reproducible and semi-quantitative approach that has been extensively validated for studying protein interactions with peptide ligands. To investigate connections between SH2 domain proteins and their putative phosphorylated docking sites on cell surface receptors, we developed addressable arrays consisting of 192 phosphotyrosine peptides. This peptide set was assembled using 71 phosphotyrosine peptide motifs corresponding to all of the cytoplasmic tyrosine residues within the FGF receptors (FGFR1-4), insulin receptor (InsR) and IGF-1 receptor (IGF-1R) (Figure 1A). Activation of these receptors results in the phosphorylation of associated scaffold proteins, and so 75 phosphotyrosine peptides corresponding to a comprehensive list of tyrosine residues within insulin receptor substrates (IRS-1 and IRS-2) and fibroblast receptor substrates (FRS-2 and FRS-3) were included. In addition, 33 phosphotyrosine peptides were incorporated from the downstream signaling proteins PLC-γ1, p130Cas (BCAR1) and p62DOK1. […] These control peptides provide a reference and establish the empirical cut-off for designated binding interactions (Table 1). No discrimination was made against peptides on the basis of reported phosphorylation state in order to examine a diverse and unbiased set of motifs. The resulting set of 192 phosphotyrosine peptides and their corresponding position in the proteins of origin is noted in Additional file 1: Table S1. Addressable arrays were synthesized as membrane-bound 11-mer peptides using the SPOT synthesis technique. While the majority of SH2 domains recognize residues C-terminal to the phosphotyrosine in their cognate peptide ligands, additional contacts between SH2 domains and residues N-terminal to the phosphotyrosine are observed for the SH2 domain of Sh2d1a (SAP) and cannot be ruled out in other cases. Peptides were synthesized with six flanking residues C-terminal to the phosphotyrosine and four residues N-terminal to the phosphotyrosine.
To assess the potential network of SH2 domain interactions we selected 50 SH2 domains representing 28 of the 38 families of SH2 domains (Figure 1B) all of which we have previously shown can be expressed and purified. These include a number of extensively studied SH2 domains (Src, Grb2, PLCγ), as well as a number of less studied SH2 domains from proteins such as Shd, She, Shf, Slnk (Sh2d6), Sh2d1a (SAP), Sh2d1b (Eat-2), and Brdg1. To address potential variability in specificity within families we employed all members from the SHB, CRK, GRB2, SRC and ABL families (families are indicated with complete Capitalized lettering).
SH2 domains were arrayed as GST fusion proteins and detected using anti-GST primary antibodies and near-infrared labeled secondary antibodies. In an effort to present a dataset with minimal false positives, we chose an empirical cutoff based on the array average across all peptide spots to classify interactions (Figure 1A). In cases where the intensity of the signal for an individual SH2-domain binding event exceeded the mean intensity of all the peptides on the membrane by three-fold were scored as “array positives” [22]. Non-binding was judged in cases where the intensity of a spot was less than the mean intensity of all spots on the membrane and these were scored as “array negatives”. Peptides with signal intensities between 1X and 3X mean were scored as “indeterminate” and ascribed as neither array positive binding interactions nor array-negative non-binders. […] This signature may be indicative of promiscuity differences between phosphopeptides or there may be a subset of peptides which interact in a nonspecific fashion with either the GST fusion tag or one of the antibodies used for detection, resulting in false positives. […]

| Substance | SH2 Domains >3X | 2X < SH2 Domains < 3X |
| --- | --- | --- |
| EDDGpYDVPKPP [A03] | CRK, CRKL, FGR, HCK, SHIP1, SRC, YES | ABL1, BLK, FYN, LYN |
| EDLSpYGDVPPG [B23] | ABL1, BRK, FGR, FYN, LCK, LYN, SH2D1B, SHC1, SHIP1, SLNK, YES | BLK, HCK, GRB7 |
| EDPIpYDEPEGL [H19] | ABL1, BLK, HCK, NCK1, SHC1, SLNK, SRC | BMX, LCK, LYN, YES |
| EDSGpYMRMWAG [D20] | FYN, PI3K1_C | LCK |
| EDYDpYVHLQGK [H13] | FYN, LCK, LYN, MIST | BLK, SH2D1B, SHC1 |
| EFYGpYMTMDRP [D11] | PI3K1_C |  |
| EGPLpYVIVEAA [F13] | ITK, MATK, PLCG2_N, RASA1_N, SYK_C | ABL2, PLCG2_C, PTPN11_N, SH2D1B |
| EGSApYEEVPTS [G20] | BRK, FGR, LYN, NCK1, SH2D1B, SHC1, YES | BLK, FER, FYN, HCK, GRB7, LCK |
| EHIPpYTHMNGG [B06] |  | PI3K1_C |
| ELILpYTRKRDS [F20] | BCAR3, BRDG1, MIST, PLCG2_N, SHF, TENC1 | BMX, DAPP1, PLCG2_C, PTPN11_C, RASA1_C, SHB, SHD |
| ELSNpYICMGGK [C01] | PI3K1_C |  |
| ENSLpYSPTWEG [H14] | ABL2, FYN, LYN, NCK1, SHC1, VAV1 | ABL1, BLK, LCK, SH2D1B, SHIP1 |
| EQDEpYDIPRHL [H10] | BRK, CRK, CRKL, FGR, FYN, LCK, LYN, RIN1, SHC1, YES | ABL1, BLK, HCK, PI3K1_N, SH2D1B, SHIP1, SRC |
| ETDYpYRKGGKG [B02] | BCAR3, BRDG1, BRK, TENC1 | BMX, MIST, PLCG2_N, RIN1, SHF, SYK_C |
| EVSFpYYSEENK [B15] | DAPP1, ITK, PLCG2_C, RASA1_C, Sh2b, SHB, SHE, SYK_C, VAV1 | ABL1, BLK, MATK, RASA1_N |
| EYRKpYGGAKLN [B07] | BCAR3, BMX, BRDG1, BRK, FER, PLCG2_N, TENC1 | ITK, MIST, PTPN11_C, RIN1, SHF, SHD, SYK_C |
| FAQLpYRSLMYS [G18] | BRDG1, MIST, Sh2b, SH2D2A, SHB, SHF, SHD, TENC1, ZAP70_N | BMX, DAPP1, GADS, GRAP, PLCG2_N, PTPN11_C, SYK_C |
| FESRpYQQPFED [H06] | ABL1, ABL2, CRK, CRKL, HCK, ITK, NCK1, RASA1_N, RASA1_C, VAV1 | MATK, PLCG2_N, SH2D2A, SRC |
| FKRSpYEEHIPY [B05] | SHB, SHF, SHD, SHE | BRDG1, TENC1 |
| GDITpYGQFAQL [G17] |  | GRB7 |
| GGEFpYGYMTMD [D10] | BCAR3, DAPP1, GRB7, PLCG2_C, SLNK | BMX, MATK, RASA1_N, RASA1_C |
| GGPLpYVLVEYA [F07] | MIST, RASA1_N, SHE, SYK_C, ZAP70_N | ITK, SHD |
| GGSPpYPGIPVE [F01] | ZAP70_N |  |
| GLDEpYDEVPMP [A05] | NCK1 | BRK, FER |
| GTEEpYMKMDLG [C18] |  | PI3K1_C |
| GVSEpYELPEDP [E05] | BRK, NCK1, PLCG2_C, VAV1, YES | BLK, BMX, DAPP1, FER, FGR, LCK, LYN, RIN1, SH3BP2, SHC1 |
| GYPRpYPSFGDA [G01] |  | ZAP70_N |

| Substance | SH2 Domains >3X | 2X < SH2 Domains < 3X |
| --- | --- | --- |
| HHIDpYYKKTSN [F16] | BCAR3, BMX, BRDG1, FER, PLCG2_N, PTPN11_C, SHF, TENC1 | DAPP1, ITK, MATK, MIST, PI3K1_N, PLCG2_C, PTPN11_N, RIN1, SH3BP2, SHB, SHD, SHIP1 |
| HHIDpYYKKTTN [E13] | BCAR3, BMX, BRDG1, FER, MIST, PLCG2_N, PTPN11_C, SHB, SHF, TENC1 | DAPP1, ITK, MATK, PI3K1_N, PTPN11_N, RIN1, SH3BP2, SHD, SHE, SHIP1, SYK_C |
| HIDYpYKKTTNG [E14] | BCAR3, BMX, BRDG1, CRK, FER, MIST, PTPN11_C, SHF, TENC1 | CRKL, ITK, PLCG2_N, PLCG2_C, PTPN11_N, RIN1, SH3BP2, SHB, SHD, SYK_C, ZAP70_N |
| HKIEpYSRRRDA [G08] | BRDG1, BRK, PLCG2_N, SHF, TENC1 | BCAR3, BMX, ITK, MIST, PLCG2_C, SHB, SYK_C |
| IGSIpYLFLRKR [A17] | BCAR3, BMX, BRDG1, BRK, DAPP1, FER, MATK, MIST, PI3K1_N, PLCG2_N, PTPN11_N, PTPN11_C, RASA1_C, RIN1, Sh2b, SHB, SHF, SHD, TENC1 | FGR, GRB2, PI3K1_C, PLCG2_C, SH3BP2, SHE, SYK_C |
| KEEGpYELPYNP [H21] | ABL1, ABL2, BLK, BRK, FGR, FYN, HCK, ITK, LCK, LYN, NCK1, PI3K1_N, RASA1_N, RASA1_C, RIN1, SH2D1B, SHC1, SHIP1, SRC, VAV1, YES | FER, GRB7 |
| KKPLpYWDLYEH [H17] | ABL1, BCAR3, BMX, CRKL, DAPP1, GRB7, ITK, MATK, PLCG2_N, PLCG2_C, RASA1_N, RASA1_C, SH2D2A, SH3BP2, TENC1 | PI3K1_C, Sh2b |
| LEYCpYNPSHNP [E10] | GRB7 |  |
| LGPLpYASSNPE [A18] | ZAP70_N |  |
| LIALpYTKDEYF [D03] | SH2D2A | ABL1, PLCG2_C |
| LIGIpYRLCLTS [B24] |  | BCAR3, BRDG1, MIST, SHD |
| LPNGpYPRYPSF [F24] | BRDG1, GRAP, GRB2, MIST, PTPN11_C, Sh2b, SHB, SHF | BCAR3, BMX, PLCG2_N, PLCG2_C, SHD, SYK_C, TENC1 |
| LTGVpYRLCLSA [D08] |  | BCAR3, BRDG1, MIST, TENC1 |
| LVALpYTRDEHF [B21] |  | SH2D2A |
| MCKVpYSDPQPH [E02] | CRKL |  |
| MCWQpYNPKMRP [B14] | BCAR3, BMX, BRDG1, FER, MIST, TENC1 | ITK, MATK, PLCG2_N, PLCG2_C, PTPN11_C, SHB, SHF, SHD, SYK_C |
| MDGGpYLDQPDN [B04] | FGR, FYN, LYN, SH2D1B, SHC1, SHIP1, SRC, YES | BLK, HCK, LCK |
| MEYSpYDINRVP [E22] | ABL1 |  |
| NALGpYTVSSFS [G11] | ABL2, CRK, CRKL, GRB7, MATK, SH2D2A | ABL1 |
| NGILpYLEDPVN [G22] | Sh2b, SHB, SHF, SYK_C |  |
| NGLNpYIDLDLV [C22] | BCAR3, ITK, PLCG2_C, PTPN11_N, RASA1_N, Sh2b, SHB, SHF, SHD, SHE, TENC1 | DAPP1, FGR, LCK, LYN, RASA1_C, SYK_C, YES |
| NKLVpYENINGL [G04] | GADS, GRAP, GRB2, GRB7, SH2D2A, SH3BP2 | ABL1 |
| NLREpYLQARRP [E08] | BRDG1, DAPP1, MIST, PLCG2_N, PTPN11_C, Sh2b, SHB, SHF, SHD, SYK_C, TENC1 | BCAR3, BMX, PTPN11_N, SHE |
| NLREpYLRARRP [E20] | BCAR3, BMX, BRDG1, MIST, PLCG2_N, RIN1, SHF, SHD, TENC1 | BRK, DAPP1, FER, PI3K1_N, PLCG2_C, PTPN11_C, Sh2b, SHB |
| NPGFpYVEANPM [H03] | ZAP70_N | PI3K1_C |
| NPGNpYTARIQA [B08] | BRDG1, MIST, PLCG2_N, PTPN11_C, SHF, SHD, SYK_C | DAPP1, Sh2b, SH3BP2, SHB, SHE |
